Reference: US20110263693A1, “CELASTROL, GEDUNIN, AND DERIVATIVES THEREOF AS HSP90 INHIBITORS” (DANA-FARBER CANCER INSTITUTE, INC., priority 2006, published 2011)

Tests used:
EGFR = test: Western blot of HSP90 client EGFR level; type: cell-based, human; details: 24 hr, several cell lines, concentration-dependent
Experimental: (§1) To more broadly establish the effects of celastrol and gedunin on the HSP90 pathway, we tested whether these compounds decrease the protein levels of other HSP90 clients.
(§2) Celastrol (Calbiochem) and gedunin (Gaia Chemicals) were solubilized in DMSO. LNCaP.FGC cells (ATCC) were grown in RPMI 1640 (ATCC) with 10% FBS. Ba/F3 cells stably expressing human FLT3, EGFR, and BCR-ABL1 were grown in RPMI 1640, 10% FBS, and 2 ng/ml IL-3. SKBr3 cells were grown in a 1:1 DME:F12 plus 10% FBS.

FLT3 = test: Western blot of HSP90 client FLT3 level; type: cell-based, human; details: for protein level of FLT3: 24 hr, several cell lines, concentration-dependent
Experimental: as §1, §2

LNCaP cells = test: Synergy with HSP90 inhibitors on cell growth by ATP level (isobologram); type: cell-based; details: 24 hr, low concentrations
Description: If celastrol and gedunin act on HSP90 function via a distinct mechanism from HSP90 ATP-binding site inhibition (Bagatell et al., 2005), they might act synergistically with existing HSP90 inhibitors. We therefore tested the combinatorial effects of these compounds with HSP90 inhibitors on HSP90 client signaling and viability. […] Celastrol and gedunin therefore act synergistically with existing modes of HSP90 ATP-binding site inhibition to inhibit HSP90 client signaling and viability in a cellular context, consistent with their inhibition of HSP90 via a distinct mechanism.
Adherent cell growth was measured by luminescent assay of ATP level (CellTiterGlo, Promega). LNCaP cells were grown in charcoal-stripped media for 2 days prior to simultaneous treatment with 1 nM R1881 and the relevant compound. Synergy was assessed by analyzing the IC50 of one drug over a range of concentrations of the other drug and vice versa. The resulting concentration pairs were visualized by isobologram (Gessner, 1995). Anchorage independence was measured by soft agar assay (Hahn et al., 1999). Compounds were added to both agar layers. Colonies were scored after 3 weeks.

[1] = tested on: SKBR breast cancer cell line; test: Apoptosis induction in SKBR cells; type: cell-based; details: to a greater extent than existing HSP90 ATP binding site inhibitors
[2] = tested on: rat models for Alzheimer's disease; details: 7 mg/kg daily; cited from earlier work
HSP90α = HSP90α (Homo sapiens, UniProt P07900); test: Geldanamycin competition assay (Cy3B-geldanamycin fluorescence polarization); type: binding; set-up: purchased Stressgen SPP776 / SPP-776; details: celastrol and gedunin at concentrations up to ~100 μM
Experimental: We first tested whether celastrol or gedunin could compete with Cy3B-geldanamycin for binding to the ATP-binding pocket of purified HSP90α by fluorescence polarization assay (Kim et al., 2004, Llauger-Bufi et al., 2003).
The geldanamycin competition assay was performed as described (He et al., 2006, Kim et al., 2004), except that Cy3B-geldanamycin rather than BODIPY-geldanamycin was used as described herein.
Measurements were taken in black 96-well microtiter plates (Coming #3650). The assay buffer (HFB) contained 20 mM HEPES (K) pH 7.3, 50 mM KCl, 5 mM MgCl2, 20 mM Na2MoO4, 0.01% NP40. Before each use, 0.1 mg/mL bovine gamma globulin (BGG) (Panvera Corporation, Madison, Wis.) and 2 mM DTT (Fisher Biotech, Fair Lawn, N.J.) were freshly added. GM-cy3B was synthesized as previously reported and was dissolved in DMSO to form 10 μM solutions. Cell lysates were prepared rupturing cellular membranes by freezing at −70° C. and dissolving the cellular extract in HFB with added protease and phosphotase inhibitors. Saturation curves were recorded in which GM-cy3B (3 nM) was treated with increasing amounts of cellular lysates.

HSP70 = details: Westerheide et al., 2004; cited from earlier work
HSP90 = HSP90 conformational change assay (bis-ANS); type: binding; details: purified HSP90 200 nM, bis-ANS 50 μM
Experimental: The final volume in each well was 100 μL. The plate was covered with foil and mixed for 30 s on a plate shaker before incubation for 60 min. at 37° C. Relative fluorescence units were measured using a SpectraMx Gemini XS spectrofluorometer (Molecular Devices Corporation, Sunnyvale, Calif.) at an excitation wavelength for bis-ANS of 393 nm and an emission wavelength of 484 nm. The data were acquired using the SOFTmaxPRO software (Molecular Devices Corporation, Sunnyvale, Calif.).

[3] = tested on: androgen-responsive gene expression in LNCaP cells; test: Genome-wide gene expression profiling with hierarchical clustering of androgen-responsive genes; type: cell-based; details: androgen-stimulated LNCaP, celastrol 1.25 μM, gedunin 20 μM, 24 hr
Experimental: We next asked whether celastrol and gedunin inhibit the broader program of androgen signaling beyond the GE-HTS signature. To address this question, we compared the genome-wide gene expression profiles of androgen-stimulated LNCaP cells treated with celastrol (1.25 μM) and gedunin (20 μM) for 24 hr to those of androgen-stimulated and androgen-deprived cells.
The mRNA expression profiles of celastrol- and gedunin-treated cells were determined by Affymetrix U133A microarray analysis in triplicate. RNA was isolated by Trizol extraction from LNCaP cells treated with vehicle, 1.25 μM celastrol, or 20 μM gedunin (1) for 24 hr in RPMI, 10% charcoal-stripped FBS, and 1 nM R1881 or vehicle, following androgen deprivation in charcoal-stripped media for 2 days, and (2) for 6 hr in RPMI with 10% FBS. IVT, labeling, hybridization, and washing were carried out on the Affymetrix High-Throughput Array platform using HT_HG-U133A preproduction arrays (early access version; part number 520276) for all but the 24 hr gedunin samples. U133A version 2 arrays were used for the 24 hr gedunin samples for technical reasons. Raw data were processed by RMA. For hierarchical clustering, a 169 probe set of androgen-regulated genes was defined and used to perform average linkage clustering (see below). […]

Structure (SMILES) | protein level of EGFR (EGFR) | protein level of FLT3 (FLT3) | combined effect with geldanamycin and 17-AAG on cell growth (ATP level) (LNCaP cells) | apoptosis in SKBR breast cancer cell line [1] | activity in rat models for Alzheimer's disease [2] | competition with Cy3B-geldanamycin for binding to the ATP-binding pocket of HSP90α (HSP90α) | HSP70 levels (HSP70) | inhibition of HSP90 conformational changes induced by bis-ANS (HSP90) | broader program of androgen signaling (genome-wide expression, hierarchical clustering) [3] | sensitivity of FLT3 internal tandem duplication (ITD) mutant to inhibition (FLT3; Ba/F3 cells, relative to non-mutant)
CC1=C(O)C(=O)C=C2C1=CC=C1[C@@]2(C)CC[C@@]2(C)[C@@H]3C[C@](C)(C(=O)O)CC[C@]3(C)CC[C@]12C [celastrol] | lowered the protein levels | lowered the protein levels | synergistically inhibit cell growth | induct apoptosis | activity | Neither celastrol nor gedunin significantly competed | induce HSP70 levels | binds purified HSP90 in vitro | invoked a broader gene expression program similar to that induced by androgen deprivation | 
CC(=O)O[C@@H]1C[C@H]2C(C)(C)C(=O)C=C[C@]2(C)[C@H]2CC[C@@]3(C)[C@H](c4ccoc4)OC(=O)[C@H]4O[C@]43[C@@]21C [gedunin] | lowered the protein levels | lowered the protein levels | synergistically inhibit cell growth | induct apoptosis |  | Neither celastrol nor gedunin significantly competed |  | the effect is not well seen | invoked a broader gene expression program similar to that induced by androgen deprivation | increased sensitivity
